Experimental data from patent US20030124104A1, “Probiotic compositions” (priority 2001, published 2003).
“And” between values parts separate entries of the source, which are not always exact repeats. Equal entries are not always repeated. “Also recorded” adds a separate entry of the source. Where two headings read alike, the source gives them in different places.

Tests used:
Type in all cases: cell-based
[1] = system: P. mirabilils; assay: MIC dilutions of bile acids, P. mirabilils
[2] = system: S. aureus; assay: MIC dilutions of bile acids, S. aureus
[3] = system: E. faecalis; assay: MIC dilutions of bile acids, E. faecalis
[4] = system: B. clausii; assay: MIC dilutions of bile acids, B. clausii
[5] = system: E. Faecium; assay: MIC dilutions of bile acids, E. Faecium
[6] = system: E. coli; assay: MIC dilutions of bile acids, E. coli
[7] = system: K. pneumoniae; assay: MIC dilutions of bile acids, K. pneumoniae
[8] = system: B. subtilis; assay: MIC dilutions of bile acids, B. subtilis
[9] = system: S. pneumoniae; assay: MIC dilutions of bile acids, S. pneumoniae

Row | Structure (SMILES) | MIC ([1]; read-out: MIC) | MIC ([2]; Staphylococcus aureus, read-out: MIC) | MIC ([3]; Enterococcus faecalis, read-out: MIC) | MIC ([4]; Shouchella clausii, read-out: MIC) | MIC ([5]; Enterococcus faecium, read-out: MIC) | MIC ([6]; Escherichia coli) | MIC ([7]; Klebsiella pneumoniae, read-out: MIC) | MIC ([8]; Bacillus subtilis, read-out: MIC) | MIC ([9]; Streptococcus pneumoniae, read-out: MIC) | MIC [1] | MIC [2] | MIC [3] | MIC [4] | MIC [5] | MIC ([6]; E. coli) | MIC [7] | MIC [8] | MIC [9]
1 | C[C@H](CCC(=O)NCCS(=O)(=O)O)[C@H]1CC[C@H]2[C@@H]3CC[C@@H]4C[C@H](O)CC[C@]4(C)[C@H]3C[C@H](O)[C@]12C [TDOC, tauro-deoxycholic acid] | ≥ 25000 µg/mL and ≥ 51200 µM | ≥ 25000 µg/mL and ≥ 51200 µM | 25000 µg/mL and 51200 µM | 24 µg/mL and ≤ 50 µM | 3120 µg/mL and 6400 µM | ≥ 25000 µg/mL and ≥ 51200 µM | ≥ 25000 µg/mL and ≥ 51200 µM | 195 µg/mL and 400 µM | 25000 µg/mL and 51200 µM | – | – | – | – | – | – | – | – | –
2 | C[C@H](CCC(=O)O)[C@H]1CC[C@H]2[C@@H]3CC[C@@H]4C[C@H](O)CC[C@]4(C)[C@H]3C[C@H](O)[C@]12C [DOC, deoxycholic acid] | – | – | – | – | – | – | – | – | – | ≧20 μg/mL; also recorded: (≧0.05) mM | ≧20 000 μg/mL; also recorded: (≧51.2) mM | 625 μg/mL and (1.6) mM | 78 μg/mL and (0.2) mM | 625 μg/mL and (1.6) mM | ≧20 μg/mL; also recorded: (≧0.05) mM | ≧20 μg/mL; also recorded: (≧0.05) mM | 78 μg/mL and (0.2) mM | 20 μg/mL and (0.05) mM
